Assay results as given in patent publication US9090617B1, “Agonists of Src homology-2 containing protein tyrosine phosphatase-1 and treatment methods using the same” (National Taiwan University, priority 2011, dated 2015).
Entries after “also recorded” stand apart in the source; their conditions may differ.

Experiments:
[1] = system: phospho-STAT3 (Tyr705); test: Phospho-STAT3 (Tyr705) sandwich ELISA; assay type: cell-based; details: PLC5 cells
Description: A PathScan Phospho-Stat3 (Tyr705) Sandwich ELISA Kit was used for the detection of phospho-STAT3 (Cell Signaling, Danvers, Mass.). Cells were pre-treated with IL-6 1 ng/ml and then exposed with various compounds at 10 μM for 24 h. After incubation with cell lysates, both non-phospho- and phospho-Stat3 proteins are captured by the coated antibody. The expression of phospho-STAT3 was measured at 450 nm absorbance.
The decreased level of P-STAT3 induced by these derivatives was correlated with cell toxicity. In the other words, these derivatives induced cell death in part through inhibition of STAT3.
We also assayed the activation status of p-STAT3 by STAT3 ELISA. […] SC-1 or sorafenib-treated cell extracts were incubated with antibody against phosphorylated STAT3 at Y705. […] To evaluate the transcriptional activity, STAT3-binding region was cloned into Luc reporter. […] The firefly luciferase activity was evaluated and normalized by Renilla luciferase.
p-STAT3 activity: PLC5 cells treated with SC derivatives were collected in RIPA buffer and analyzed in p-STAT3 ELISA kit. The assay protocol follows the manufacturer.

[2] = system: p-STAT3, cyclin D1, survivin, Mc1-1; test: Western blot of STAT3-related proteins in HCC cells; assay type: cell-based; details: HCC cells, 24 h
Description: Cells were treated with various compounds at 5 and 10 μM for 24 h. Cell lysates were analyzed by western blot.
HCC cells treated with SC-43 (10 μM for 24 h) were collected with RIPA lysis buffer. Antibodies for immunoblotting such as cyclin D1 was purchased from Santa Cruz Biotechnology. Other antibodies such as survivin, phospho-STAT3 (Tyr705), STAT3, Mc1-1, SOCS1, and SOCS3 were from Cell Signaling.

[3] = target: T1, SHP-1 (Homo sapiens, UniProt P29350); test: Phosphatase activity of recombinant SHP-1; assay type: biochemical; details: 25 ng protein, 30 minutes
T1 sequence (P29350 whole entry): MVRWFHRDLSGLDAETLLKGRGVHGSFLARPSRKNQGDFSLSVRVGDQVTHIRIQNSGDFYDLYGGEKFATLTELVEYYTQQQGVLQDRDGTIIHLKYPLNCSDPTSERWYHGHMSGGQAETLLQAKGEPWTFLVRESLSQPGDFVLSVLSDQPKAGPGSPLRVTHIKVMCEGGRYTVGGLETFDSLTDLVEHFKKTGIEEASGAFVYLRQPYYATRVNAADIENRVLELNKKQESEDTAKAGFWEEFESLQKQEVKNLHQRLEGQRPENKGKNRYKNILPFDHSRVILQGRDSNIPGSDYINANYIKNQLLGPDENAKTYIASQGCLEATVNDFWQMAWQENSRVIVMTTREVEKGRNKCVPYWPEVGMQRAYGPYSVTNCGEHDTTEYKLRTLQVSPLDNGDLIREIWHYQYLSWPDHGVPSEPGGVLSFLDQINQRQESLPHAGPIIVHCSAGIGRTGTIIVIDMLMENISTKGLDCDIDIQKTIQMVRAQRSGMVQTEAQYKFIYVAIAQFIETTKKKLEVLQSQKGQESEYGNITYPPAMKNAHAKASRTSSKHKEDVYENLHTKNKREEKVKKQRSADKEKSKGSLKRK
Description: RediPlate 96 EnzChek Tyrosine Phosphatase Assay kit (R-22067) was used for SHP-1 activity assay (Molecular Probes). Recombinant SHP-1 protein (25 ng) was incubated with either SC-43 or SC-40 at the indicated dose for 30 minutes and then analyzed by SHP-1 phosphatase activity.

[4] = system: HCC cells; test: cells
From the text: Points, mean; bars, SD (n=6).
Points, mean; bars, SD ([…]). […] The N-SH2 domain is in orange, the C-SH2 domain is in marine, the PTP domain is in hot pink, and the linkers between them are in gray. […] ELISA, enzyme-linked immunosorbent assay.

[5] = system: HCC cells; test: Apoptosis analysis by flow cytometry (sub-G1); assay type: cell-based; details: for apoptosis (sub-G1): HCC cells, 24 h
In short: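 HCC cells treated with compounds, harvested, fixed in 75% ethanol and stained with 20 ug/ml propidium iodide, 30 min at 37° C in the dark. Sub-G1 population measured by flow cytometry as apoptotic fraction; mean ± SD.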

[6] = system: PLC5 tumors; test: Subcutaneous PLC5 xenograft; assay type: in vivo, mice; details: 10 mg/kg/day orally
Description: All experimental procedures using these mice were done in accordance with protocols approved by the Institutional Laboratory Animal Care and Use Committee of National Taiwan University. Each mouse was inoculated s.c. in the dorsal flank with 1×10^6 PLC5 cells suspended in 0.1 mL of serum-free medium containing 50% Matrigel (BD Biosciences). When tumors reached 100 to 200 mm3, mice received SC-40 tosylate (10 or 20 mg/kg) orally once daily. Tumors were measured weekly using calipers, and their volumes were calculated using the following standard formula: width×length×height×0.52.
(§1) We established an HCC orthotopic model using luc2-expressed PLC5 cells inoculated into liver of nude mice. […] To further correlate the molecular mechanism with the anticancer effect in vivo, p-STAT3 and SHP-1 activity in tumor extract from vehicle- and SC-treated mice was analyzed by immunoblotting. […] The pharmacokinetics of SC-43 was determined (FIG. 25E).

[7] = system: PLC5/luc2 orthotopic tumors; test: HCC orthotopic model with PLC5/luc2 cells; assay type: in vivo, mice; details: 10 mg/kg/day orally
Description: All experimental procedures using these mice were done in accordance with protocols approved by the Institutional Laboratory Animal Care and Use Committee of National Taiwan University. Each mouse was inoculated within liver […] with 1×10^4 PLC5/luc cells suspended in 0.1 mL of serum-free medium containing 50% Matrigel (BD Biosciences). […] Tumor growth was monitored by non-invasive in vivo imaging system (IVIS) image system twice weekly.
as §1

[8] = Pharmacokinetics of SC-43; assay type: in vivo; details: compared with literature report for sorafenib
Description: as §1

[9] = system: MDAMB231, MDAMB468, MCF-7, HL-60, KG-1 and ML-1; test: Anti-proliferation in breast cancer and leukemia cell lines; assay type: cell-based; details: MDAMB231, MDAMB468, MCF-7, HL-60, KG-1, ML-1
Description: The Huh-7 HCC cell line was obtained from the Health Science Research Resources Bank (Osaka, Japan; JCRB0403). The PLC/PRF/5 (PLC5), Sk-Hep-1, and Hep3B cell lines were obtained from American Type Culture Collection (Manassas, Va.). The cells were maintained in DMEM supplemented with 10% FBS, 100 units/mL penicillin G, 100 μg/mL streptomycin sulfate and 25 μg/mL amphotericin B in a 37° C. humidified incubator in an atmosphere of 5% CO2 in air. Other cell lines, including breast cancer cells e.g. MDAMB231, MDAMB468, MCF-7, and leukemia cancer cells e.g. HL-60, KG-1 and ML-1 are also provided for the assays described below.
We also examed the effects of SC-1 and SC-43 in other cancer cell lines, including breast cancer cell lines e.g. MDAMB231, MDAMB468, MCF-7, and leukemia cancer cell lines e.g. HL-60, KG-1 and ML-1.

[10] = system: HCC-bearing mice; test: Antitumor effect of SC-43 in HCC-bearing mice; details: mouse, in vivo
Description: SHP-1/STAT3-related signaling pathway acts as a vital target for the anti-tumor effect of SC-43. See FIG. 22 (A) the cytotoxicity of SC-43 in HCC cells, (B) the antitumor effect of SC-43 in HCC-bearing mice, (C) the activity of SHP-1 induced by SC-43, and (D) Western blot analysis of p-STAT3 and STAT3 in HCC cells treated by SC-43 (10 μM and 20 μM).

[11] = target: T1, SHP-1; test: Phosphatase activity of SHP-1 immunoprecipitated from PLC5 cells, incubated with compound in vitro; assay type: biochemical; parameters: PLC5 protein extract was incubated with anti-SHP-1 antibody in immunoprecipitation buffer overnight; endogenous in cells; host or cells: PLC5 (PLC/PRF/5); details: SHP-1-containing PLC5 extract, 10 or 100 nmol/L, 30 min, 4° C.
Description: PLC5 protein extract was incubated with anti-SHP-1 antibody in immunoprecipitation buffer overnight. Protein G Sepharose 4 Fast flow (GE Healthcare Bio-Science) was added to each sample, followed by incubation for 3 hours at 4° C. with rotation. […] RediPlate 96 EnzChek Tyrosine Phosphatase Assay kit (R-22067) was used for SHP-1 activity assay (Molecular Probes).

[12] = system: Huh-7 tumors
Description: Male NCr athymic nude mice (5-7 weeks of age) were obtained from the National Laboratory Animal Center (Taipei, Taiwan). All experimental procedures using these mice were performed in accordance with protocols approved by National Taiwan University. […] Controls received vehicle (Chen K F et al. Cancer Res. 2008; 68:6698-6707).

[13] = target: T2, VEGFR1 (Homo sapiens, UniProt P17948); test: VEGFR1 activity in HUVEC cells; assay type: cell-based; details: 24 h
T2 construct: we tested the effect of SC-49 on the activity of VEGFR1 in HUVEC cells; endogenous in cells; host or cells: HUVEC
T2 sequence (P17948 27-1338): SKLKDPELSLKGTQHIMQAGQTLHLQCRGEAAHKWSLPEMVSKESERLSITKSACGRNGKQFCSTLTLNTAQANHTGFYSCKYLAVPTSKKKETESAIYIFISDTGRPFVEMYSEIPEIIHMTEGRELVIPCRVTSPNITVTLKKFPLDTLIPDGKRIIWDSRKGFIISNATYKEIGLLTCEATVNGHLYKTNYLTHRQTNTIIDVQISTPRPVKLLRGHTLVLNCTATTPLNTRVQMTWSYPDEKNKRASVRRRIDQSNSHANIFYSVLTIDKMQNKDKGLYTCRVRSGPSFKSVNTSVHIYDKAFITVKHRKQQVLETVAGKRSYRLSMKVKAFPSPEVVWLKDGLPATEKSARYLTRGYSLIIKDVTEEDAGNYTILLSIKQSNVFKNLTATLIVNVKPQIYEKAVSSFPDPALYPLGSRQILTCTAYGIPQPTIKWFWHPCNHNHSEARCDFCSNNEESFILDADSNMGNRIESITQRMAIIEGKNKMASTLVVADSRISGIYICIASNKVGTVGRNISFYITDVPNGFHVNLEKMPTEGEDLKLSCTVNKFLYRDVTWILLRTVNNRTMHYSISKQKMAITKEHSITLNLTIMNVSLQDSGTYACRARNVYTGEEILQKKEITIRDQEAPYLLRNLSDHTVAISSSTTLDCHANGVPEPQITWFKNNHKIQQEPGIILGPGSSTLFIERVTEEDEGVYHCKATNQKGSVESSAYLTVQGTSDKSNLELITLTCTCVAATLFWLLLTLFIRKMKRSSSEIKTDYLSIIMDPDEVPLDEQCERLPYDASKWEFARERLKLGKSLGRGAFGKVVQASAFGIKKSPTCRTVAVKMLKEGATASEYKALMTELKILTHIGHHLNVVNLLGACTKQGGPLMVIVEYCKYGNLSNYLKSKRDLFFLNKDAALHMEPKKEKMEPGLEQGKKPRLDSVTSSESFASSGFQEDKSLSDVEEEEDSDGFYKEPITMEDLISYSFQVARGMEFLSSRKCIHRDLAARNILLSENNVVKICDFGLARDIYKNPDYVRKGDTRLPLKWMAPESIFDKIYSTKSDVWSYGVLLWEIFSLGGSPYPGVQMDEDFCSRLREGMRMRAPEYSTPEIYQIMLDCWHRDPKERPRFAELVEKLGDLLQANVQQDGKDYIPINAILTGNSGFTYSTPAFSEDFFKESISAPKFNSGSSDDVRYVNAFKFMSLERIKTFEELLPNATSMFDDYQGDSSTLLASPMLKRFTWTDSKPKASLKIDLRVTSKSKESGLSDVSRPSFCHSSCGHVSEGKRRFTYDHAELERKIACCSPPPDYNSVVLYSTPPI
From the text: (§2) To further investigate the effect of SC-49 on angiogenesis, we tested the effect of SC-49 on the activity of VEGFR1 in HUVEC cells.

[14] = system: p-STAT1 and p-STAT5; test: Effect on p-STAT1 and p-STAT5; assay type: cell-based; details: indicated doses, 24 h
From the text: as §2

[15] = system: Huh-7 xenograft tumor; test: Huh-7 xenograft with SC-59 or sorafenib and radiation; assay type: in vivo, mice
Description: (A) The effects of SC-59 and radiation on tumor growth. Each mouse was inoculated subcutaneously in the right leg with […] Huh-7 cells suspended in Matrigel. When the tumor reached a volume of 400-600 mm3, mice received vehicle, 5 Gy radiation (one fraction per day) for 4 days, or 10 mg/kg SC-59 p.o. once daily, or a combination for the duration of the study. The data points indicate the mean values (n=6) and the bars indicate the standard error. There were significant differences between the combined treatment group and the vehicle control group (*, P<0.05, **, P<0.01). (B) Left, the expression of P-STAT3 in the Huh-7 tumors was analyzed by western blot. Right, quantified data for p-STAT3 to STAT3. (C) The activity of SHP-1 in Huh-7 tumors. Values are means±SD, *, P<0.05. (D) Body weight of mice after SC-59 and RT treatment. […] The data points indicate the mean values (n=6) and the bars indicate the standard error. […] (H) Body weight of mice treated with vehicle, RT, sorafenib, and combination.
To further elucidate the molecular events responsible for this synergistic effect, we examined the expression level of p-STAT3 in the tumor extract.

[16] = target: T1, SHP-1; test: SHP-1 activity in treated HCC cells (tyrosine phosphatase assay kit); assay type: cell-based; parameters: endogenous in cells; details: SK-Hep1 cells
From the text: The RediPlate 96 EnzChek® Tyrosine Phosphatase Assay Kit (R-22067) was used for SHP-1 activity assay (Molecular Probes, Carlsbad, Calif.). The Raf-1 kinase cascade assay kit (Upstate-Millipore, Billerica, Mass.) was used to examine the Raf-1 kinase activity. The JAK2 kinase activity kit was purchased from Reaction Biology Corp. (Malvern, Pa.).

N#Cc1ccc(Oc2cccc(NC(=O)Nc3ccc(Cl)c(C(F)(F)F)c3)c2)cc1 [SC-43, 1-(3-(4-cyanophenoxyl)phenyl)-3-(4-chloro-3-(trifluoromethyl)phenyl)urea]
p-STAT3 / STAT3 activity (phospho-STAT3 ELISA and luciferase reporter) [1]: induce strong inhibition of p-STAT3 activity; also recorded: showed more potent inhibition of the p-STAT3-related signaling pathway | p-STAT3 and STAT3-related proteins (Western blot) [2]: down-regulates phospho-STAT3-related signaling pathway in HCC; also recorded: shows better inhibition of p-STAT3-related signaling pathway than sorafenib; also recorded: revealed submicromolar inactivation of p-STAT3, relative to sorafenib | phosphatase activity of recombinant SHP-1 [3]: increase phosphatase activity of SHP-1 in vitro | viability of HCC cells / cytotoxicity ([4]; 72 h): showed lower 50% inhibitory concentration, compared to sorafenib | IC50 ([4]; read-out: IC50, cytotoxicity in HCC cells): ~500 nM | apoptosis (sub-G1) [5]: show significant anti-cancer effects in HCC cells | apoptosis in sorafenib-resistant cells ([5]; sorafenib-resistant HCC cells (SR1)): resulted in significant apoptosis in sorafenib-resistant cells at submicromolar concentrations | p-STAT3 and SHP-1 activity in PLC5 tumor lysate [6]: Down-regulation of p-STAT3 and elevation of SHP-1 activity | average tumor size versus control mice at the end of treatment ([6]; SC PLC5 tumor-bearing mice): less than half that of control mice | anti-HCC effect and survival in orthotopic model [7]: had an evident anti-HCC effect and significant survival benefit | stability in vivo (pharmacokinetics) [8]: exhibited a longer period of stability in vivo than that reported for sorafenib | growth of breast cancer and leukemia cell lines [9]: effective in inhibiting the growth of cancer cells | tumor growth inhibition in HCC-bearing mice [10]: significantly causes tumor growth inhibition in HCC-bearing mice | phosphatase activity of SHP-1 in vitro [11]: increase phosphatase activity of SHP-1 in vitro

N#Cc1ccc(Oc2ccc(CNC(=O)Nc3ccc(Cl)c(C(F)(F)F)c3)cc2)cc1 [SC-49, 1-(4-chloro-3-(trifluoromethyl)phenyl)-3-(4-(4-cyanophenoxyl)benzyl)urea]
Huh-7 tumor size / growth versus control ([12]; 10 mg/kg/day orally): significantly reduced the growth of the Huh-7 tumour | body weight or toxicity ([12]; mouse, in vivo, po, 10 mg/kg/day): stable body weights | SHP-1 activity in Huh-7 tumors ([12]; tumor extract): enhanced the activity of SHP-1 in Huh-7 tumours | p-STAT3 in Huh-7 tumors ([12]; tumor extract, Western blot): down-regulated p-STAT3 in Huh-7 tumours | apoptosis (sub-G1) [5]: induced more apoptotic cell death than sorafenib | activity of VEGFR1 [13]: did not affect the activity of VEGFR1 in HUVEC cells | p-STAT1 and p-STAT5 [14]: down-regulated both p-STAT1 and p-STAT5 in a dose dependent manner | phosphatase activity of SHP-1 in vitro [11]: increase phosphatase activity of SHP-1 in vitro

Cc1ccc(NC(=O)Nc2ccc(Cl)c(C(F)(F)F)c2)cc1Oc1ccc(C#N)cc1 [SC-59, 1-(4-chloro-3-(trifluoromethyl)phenyl)-3-(3-(4-cyanophenoxy)-4-methylphenyl) urea]
p-STAT3 and STAT3-related proteins (Western blot) [2]: downregulated phospho-STAT3 (p-STAT3) at tyrosine 705 along with its downstream molecules | tumor growth with radiotherapy combination ([15]; 10 mg/kg p.o. once daily plus 5 Gy radiation for 4 days): displayed significant tumor growth inhibition compared to radiotherapy or SC-59 alone | SHP-1 phosphatase activity in tumor samples ([15]; Huh-7 tumors, 10 mg/kg p.o.): induction of SHP-1 phosphatase activity was observed | p-STAT3 in treated tumor samples ([15]; Huh-7 tumors, 10 mg/kg p.o.): resulted in clear inhibition of p-STAT3 | body weight ([15]; Huh-7 xenograft, 10 mg/kg p.o.): no significant difference in body weight | phosphatase activity of SHP-1 in cells [16]: significantly increased the phosphatase activity of SHP-1 in SK-Hep1 cells
